For series [1], the system named is COX-1. The conditions noted are these: cited from earlier work. The text has this: (§1) Aim: Neolignan 4’-O-methylhonokiol (MH) isolated from Magnolia grandiflora is known to have several biological activities, including anti-cancer, anti-inflammatory and anti-neurodegenerative effects. […] The development of COX-2 inhibitor radiolabeled analogs is of special interest for PET visualization of inflammation and tumors.

Series [2] concerns COX-2. The conditions noted are these: cited from earlier work.
Excerpt: as §1

Series [3] can be described thus: carrageenan-induced inflammation in mice. Format: in vivo. The settings on record: preliminary tests on mice with a carrageenan-induced inflammation. The text has this: Aim: Neolignan 4’-O-methylhonokiol (MH) isolated from Magnolia grandiflora is known to have several biological activities, including anti-cancer, anti-inflammatory and anti-neurodegenerative effects. […] The development of COX-2 inhibitor radiolabeled analogs is of special interest for PET visualization of inflammation and tumors. […] The present study describes the radiolabeling procedure of [^11C]MPbP.

The conditions of series [4]: human, serum.
Description: Protein binding, partition coefficient and stability values of ^68Ga-pyoverdine in human serum and in the excess of competing chelator and metal were determined.
Series [5] has as its system RBCs. As to the kind of experiment: RBC radiolabelling. Format: cell-based.
The conditions of series [6]: after 10 min, BALB/c mice in vivo. Here is the method:
(§2) Methods: The new MG analogue DOTA-MGS5 was designed based on a combination of the substitutions applied in peptide derivatives previously developed by our group (1). The in vitro and in vivo characterisation after radiolabelling with In-111 and Lu-177 included stability analyses of the radioligands incubated in rat tissue homogenates and after injection into BALB/c mice. Receptor interaction in terms of receptor affinity and cell uptake was analysed using A431 human epidermoid carcinoma cells transfected with human CCK2R (A431-CCK2R) and mock-transfected cells (A431-mock). The targeting potential was evaluated by small animal dual modality single photon emission computed tomography (NanoSPECT/CT) as well as ex vivo biodistribution studies in tumour bearing BALB/c nude mice up to 4 h after injection.

Series [7] deals with A431-CCK2R cells. As to the kind of experiment: internalisation into A431-CCK2R cells. Format: cell-based, human.
A short description of series [8]: in vivo. The settings on record: BALB/c nude, mouse, A431-CCK2R tumour, total radioactivity, tumour uptake, 4 h p.i. The procedure: as §2
Series [9] has as its system Her-2-positive (HCC1954) cell line. As to the kind of experiment: cell binding and internalisation, HCC1954. The conditions noted are these: controls. In kind it is cell-based.
Description: Radiopharmaceuticals (0.19 MBq/μg) were tested for their internalisation and effects on viability (dye exclusion) and clonogenicity of Her-2-positive (HCC1954) and –negative (MDA-MB-231) cell lines.
The subject of series [10] is LNCaP. As to the kind of experiment: total cell bound tracer, LNCaP. The settings on record: 1h incubation.
Description: (§3) Total cell bound [^68Ga]1 and [^68Ga]2 over time (0-90 min) was determined according to previously published methods^1,2. FACS analysis with 3 was also performed on the following cell lines T47D^+ (PSMA^+), T47D^Mock (vector only), T47D (wild type).
The test system of series [11] is MDA-MB-231^+. Briefly: total cell bound tracer, MDA-MB-231+. The conditions noted are these: 1h incubation.
Description: as §3
In series [12] the test system is T47D^+. Briefly: total cell bound tracer, T47D+. The conditions noted are these: 1h incubation.
Description: as §3
Series [13] deals with PC-3^+. Briefly: total cell bound tracer, PC-3+. The settings on record: 1h incubation.
Description: as §3
A short description of series [14]: cysteine challenge. The conditions noted are these: 100 fold molar excess, up to 2 hours. In kind it is physicochemical. The procedure: Cysteine challenge (100 fold molar excess) was also performed.
The subject of series [15] is MCF-7 cells. Briefly: cellular uptake, internalization and membrane binding. Format: cell-based.
For series [16] the following is noted: adult, 740 MBq; ref summary of products characteristics; cited from earlier work.
Series [17] addresses T1, AT1R (Homo sapiens, UniProt P30556).
T1 construct: using AT1R-positive MDA-MB-231 breast cancer cells; endogenous in cells
Briefly: in vitro AT1R binding studies. Format: cell-based. The conditions noted are these: MDA-MB-231 and CHO AT1R cells vs AT1R-negative CHO cells, 4 °C, one hour, with or without losartan potassium 100 μM. Here is the method:
Methods: ^19F-AmBF3-losartan was prepared via a copper-catalyzed alkyne-AmBF3 and azide-modified losartan cycloaddition at 45 °C for two hours, followed by semi-preparative HPLC purification. Then, ^19F-AmBF3-losartan (25 nmol, 15.3 μg) was radiolabeled with fluoride-18 (555-925 MBq) via an ^18F–^19F isotope exchange reaction in aqueous phase at 80 °C for 20 minutes and purified by solid phase extraction using a C18 Light Sep-Pak cartridge. In vitro AT1R binding studies were performed at 4 °C for one hour using AT1R-positive MDA-MB-231 breast cancer cells, AT1R-expressing CHO AT1R cells, and AT1R-negative CHO cells. The in vitro studies were conducted in presence or absence of the AT1R blocker losartan potassium (100 μM). AT1R expression in cells was confirmed by quantitative real-time reverse transcription polymerase chain reaction (RT-PCR).

A short description of series [18]: logP of 68Ga-TAFC derivatives. The settings on record: 68Ga-labelled. In kind it is physicochemical. The procedure: Stability, protein binding and logP values were determined.
Series [19] deals with T2, rhuPAR (human, UniProt Q03405 23-305).
T2 construct: Species read from the printed label 'rhuPAR' (recombinant human uPAR); also called membrane anchored receptor uPAR
T2 sequence (Q03405 23-305): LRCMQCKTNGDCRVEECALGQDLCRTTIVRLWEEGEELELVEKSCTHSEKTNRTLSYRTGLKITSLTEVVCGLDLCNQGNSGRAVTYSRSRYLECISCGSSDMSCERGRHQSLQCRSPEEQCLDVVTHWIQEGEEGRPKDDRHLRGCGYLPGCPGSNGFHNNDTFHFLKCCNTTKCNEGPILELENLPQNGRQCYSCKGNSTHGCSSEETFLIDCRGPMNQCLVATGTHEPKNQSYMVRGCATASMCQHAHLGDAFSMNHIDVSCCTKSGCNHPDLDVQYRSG
Briefly: ELISA; competitive bioassay: rhuPAR immobilised; ligand 0-1000 uM in the presence of 0.1 nM monoclonal mouse IgG1 antibody (clone #62022, R&D Systems) against the uPA-binding pocket of uPAR; HRP-conjugated goat anti-mouse IgG1, chromogenic substrate, read at 450 nm; assay specific IC50. The settings on record: both partners purified.

Like-named read-outs stand apart in the source and are kept apart here. *1 amine or outer side, *2 acyl side, *3 side chain or, on linkers, in order; H or OH if unused. Where a SMILES comes first, the peptide text is derived from it. Bridges are numbered along the chain shown (N, C = ends). Where no end group is shown, it is not given here. [ ]: non-standard residue; d: D form. X1 = O=C([C@@H]1CCN=C2C(N[*:1])=Cc3cc(O)c(O)cc3N21)[*:2]; X2 = O=CN(O)CCC[C@H](N[*:1])C(=O)[*:2]; Suc = O=C(CCC(=O)[*:2])[*:1]

T1 sequence (P30556 whole entry): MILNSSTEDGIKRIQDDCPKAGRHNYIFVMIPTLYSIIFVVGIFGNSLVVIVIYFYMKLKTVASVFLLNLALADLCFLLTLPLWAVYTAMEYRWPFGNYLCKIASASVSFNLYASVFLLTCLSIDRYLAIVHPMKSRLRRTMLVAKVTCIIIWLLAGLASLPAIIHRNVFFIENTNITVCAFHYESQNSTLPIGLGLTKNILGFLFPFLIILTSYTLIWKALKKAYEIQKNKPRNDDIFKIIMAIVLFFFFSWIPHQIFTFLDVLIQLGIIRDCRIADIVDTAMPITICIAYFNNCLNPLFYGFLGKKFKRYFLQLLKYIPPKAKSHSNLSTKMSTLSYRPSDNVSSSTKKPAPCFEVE

For orientation: IC50 means the concentration that gives 50% inhibition. As for `C=CCc1ccc(O)c(-c2ccc(OC)c(CC=C)c2)c1` [MH, 4’-O-methylhonokiol], the IC50 in [1] is 2400 nM; in [2], 62 nM.
For `CCCc1ccc(O)c(-c2ccc(O[11CH3])cc2)c1` [MPbP, 4’-[^11C]methoxy-5-propyl-1,1’-biphenyl-2-ol], the anti-inflammatory activity entry in series [3] was “high anti-inflammatory activity comparable to that of specific COX-2 inhibitor celecoxib”.
One may read the fraction unbound as the share of the substance not bound to proteins or other matrix. A higher fraction unbound goes with much free substance. `C[C@@H](O)[C@@H]1NC(=O)[C@H](CCCN(O)C=O)NC(=O)[C@@H](NC(=O)[C@H](CCCN(O)C=O)NC(=O)[C@@H](CO)NC(=O)[C@H](CCCNC(=N)N)NC(=O)[C@@H](CO)NC(=O)[C@@H]2CCN=C3C(NC(=O)CCC(=O)O)=Cc4cc(O)c(O)cc4N32)CCCCNC(=O)[C@H]([C@@H](C)O)NC1=O` [^68Ga-pyoverdine, metal not drawn] (Suc-[X1][dS]R[dS][X2]K[X2]TT; lactam 6-C) gave a log p of -3.07 ± 0.08. This molecule came in with a fraction unbound in series [4] of over 0.97.
In the case of `c1cnc2c([O][89Zr]([O]c3cccc4cccnc34)([O]c3cccc4cccnc34)[O]c3cccc4cccnc34)cccc2c1` [^89Zr-oxine], the “labelling efficiency of RBCs” value in series [5] was “above 64.5%”.
In general, tissue uptake refers to the percentage of the injected dose found per gram of tissue. For `CCCC[C@@H](C(=O)N[C@@H](CC(=O)O)C(=O)N[C@@H](Cc1cccc2ccccc12)C(N)=O)N(C)C(=O)[C@H](Cc1c[nH]c2ccccc12)NC(=O)CNC(=O)[C@H](Cc1ccc(O)cc1)NC(=O)[C@H](C)NC(=O)[C@@H](CCC(=O)O)NC(=O)CN1CCN(CC(=O)O)CCN(CC(=O)O)CCN(CC(=O)O)CC1` [^111In-DOTA-MGS5, metal not drawn], the “stability in blood, intact peptide” value in series [6] is listed as over 80%. The “internalisation into A431-CCK2R cells” value in [7] (after 1 h) is over 40%; in [7] (after 4 h), over 80%. Moreover, the tissue uptake at 4 h in series [8] stood at 23.5 ± 1.3 %ID/g.
Consider `O=C([O-])CN1CCN(CC(=O)[O-])CCN(CC(=O)[O-])CCN(CC(=O)[O-])CC1.[111In+3]` [^111In-DOTA], for which, in series [9], the “binding to HCC1954 cells” value is reported as “did not bind”.
On to “H2N-(Ahx)-Lys-NH-CO-NH-Glu (PSMA-11) [[^68Ga]1]”, for which the “cell binding, % given radioactivity” value in series [10] was ~ 66%; in series [11] it was ~ 80%; in series [12], ~ 2.5%; in [13], ~ 13%. Also, the “cell binding, times above control” value is 100 x in series [11] (vs Mock or blocked controls), 4 x in series [12] (vs Mock or blocked controls) and 10 x in series [13] (vs Mock or blocked controls).
Turning to “MA-Cys-Tyr-Arg-Leu-Arg-BPA-Nle-Pro-Asn-Ile-OH [^99mTc labelled NPY1 short analogue, 99mTc 3+1 nitrido complex of MA-Cys-Tyr-Arg-Leu-Arg-BPA-Nle-Pro-Asn-Ile-OH]”, the challenge with cysteine entry in series [14] is reported as “no ligand exchange”. For the same molecule, in series [15], the “activity bound to the membrane” value is recorded as 15.2% and the activity internalised was 84.8%. The same molecule registered a cellular uptake in series [15] (at 4 hours) of 3.1±0.2.
For the molecule “^99mTc-HYNIC-[D-Phe,Tyr-octreotide [^99mTc-Octreotide]”, the effective dose in series [16] is 3.7 mSv.
With “ammoniumethyl-trifluoroborate-losartan [^18F-AmBF3-losartan]”, in series [17], the “binding to AT1R-expressing cells” value is reported as “specific binding”.
As for triacetylfusarinine C [[^68Ga]TAFC], the log p in [18] was -2.1.

B1: WX-360: cyclo^21,29[D-Cys^21]-uPA_(21-30)[S21C;H29C] (peptide, UniProt P00749 41-50, looked up)
peptide: [dC]NKYFSNICW
modifications: disulfide 1-9
notes: also called the original structure; source: synthetic peptide (synthesised on solid phase)
Turning to B1, the binding result in series [19] is on record as “binds”.

The values are drawn from paper PMC5954004, “19th European Symposium on Radiopharmacy and Radiopharmaceuticals (ESRR’18)” (EJNMMI Radiopharmacy and Chemistry, 2018).
